Measurements from US20230159546A1, “NOVEL SPIROPYRROLIDINE DERIVED ANTIVIRAL AGENTS” (Enanta Pharmaceuticals, Inc., priority 2021, published 2023).

The compounds below were run against SARS-CoV-2 3CL-protease (Severe acute respiratory syndrome coronavirus 2, UniProt P0DTD1) (assay: SARS-CoV-2 3C-like (3CL) protease fluorescence assay (FRET)). Details: recombinant SARS-CoV-2 3CL-protease 10 nM, 30 min preincubation at RT, duplicate; read-out: FRET IC50.
Format: biochemical

Compound	IC50
N#C[C@@H]1C[C@@]2(CN1C(=O)OCn1cccn1)C(=O)Nc1ccccc12 [Example 87]	> 1 µM
CCNC(=O)C(=O)N1C[C@]2(C[C@H]1C#N)C(=O)Nc1ccccc12 [Example 88]	> 1 µM
CC(C)NC(=O)C(=O)N1C[C@]2(C[C@H]1C#N)C(=O)Nc1ccccc12 [Example 89]	> 1 µM
N#C[C@@H]1C[C@@]2(CN1C(=O)C(=O)NC1CCCC1)C(=O)Nc1ccccc12 [Example 90]	0.1 to 1 µM
N#C[C@@H]1C[C@@]2(CN1C(=O)C(=O)Nc1ccc3cccnc3c1)C(=O)Nc1ccccc12 [Example 91]	> 1 µM
N#C[C@@H]1C[C@@]2(CN1C(=O)C(Cc1ccccc1)C(=O)C1CC1)C(=O)Nc1ccccc12 (stereo partly drawn) [Example 92]	0.1 to 1 µM
N#C[C@@H]1C[C@@]2(CN1C(=O)C(Cc1ccccc1)C(=O)C1CCCCC1)C(=O)Nc1ccccc12 (stereo partly drawn) [Example 93]	> 1 µM
N#C[C@@H]1C[C@@]2(CN1C(=O)[C@H](Cc1ccccc1)C(=O)c1ccccc1)C(=O)Nc1ccccc12 [Example 94]	> 1 µM
N#C[C@@H]1C[C@@]2(CN1C(=O)[C@@H](Cc1ccccc1)C(=O)c1ccccc1)C(=O)Nc1ccccc12 [Example 95]	> 1 µM
CC(C)(C(=O)C1CC1)C(=O)N1C[C@]2(C[C@H]1C#N)C(=O)Nc1ccccc12 [Example 100]	> 1 µM
CC(C)(C(=O)C1CCCCC1)C(=O)N1C[C@]2(C[C@H]1C#N)C(=O)Nc1ccccc12 [Example 101]	> 1 µM
N#C[C@@H]1C[C@@]2(CN1C(=O)C1(C(=O)c3ccccc3)CC1)C(=O)Nc1ccccc12 [Example 102]	> 1 µM
CC(C)(C(=O)c1ccccc1)C(=O)N1C[C@]2(C[C@H]1C#N)C(=O)Nc1ccccc12 [Example 111]	> 1 µM
N#C[C@@H]1C[C@@]2(CN1C(=O)C(=O)OC1CCCC1)C(=O)Nc1ccccc12 [Example 112]	> 1 µM
N#C[C@@H]1C[C@@]2(CN1C(=O)C(=O)OC1CCCCC1)C(=O)Nc1ccccc12 [Example 113]	0.1 to 1 µM
CC(C)NC(=O)[C@@H](Cc1ccccc1)C(=O)N1C[C@]2(C[C@H]1C#N)C(=O)Nc1ccccc12 [Example 114]	0.1 to 1 µM
CC(C)NC(=O)[C@H](Cc1ccccc1)C(=O)N1C[C@]2(C[C@H]1C#N)C(=O)Nc1ccccc12 [Example 115]	> 1 µM
N#C[C@@H]1C[C@@]2(CN1C(=O)[C@H](Cc1ccccc1)C(=O)NC1CC1)C(=O)Nc1ccccc12 [Example 116]	0.1 to 1 µM
N#C[C@@H]1C[C@@]2(CN1C(=O)[C@@H](Cc1ccccc1)C(=O)NC1CC1)C(=O)Nc1ccccc12 [Example 117]	> 1 µM
N#C[C@@H]1C[C@@]2(CN1C(=O)[C@H](Cc1ccccc1)C(=O)NC1CCCCC1)C(=O)Nc1ccccc12 [Example 118]	0.1 to 1 µM
N#C[C@@H]1C[C@@]2(CN1C(=O)[C@@H](Cc1ccccc1)C(=O)NC1CCCCC1)C(=O)Nc1ccccc12 [Example 119]	> 1 µM
N#C[C@@H]1C[C@@]2(CN1C(=O)[C@H](Cc1ccccc1)C(=O)Nc1ccccc1)C(=O)Nc1ccccc12 [Example 120]	0.1 to 1 µM
N#C[C@@H]1C[C@@]2(CN1C(=O)[C@@H](Cc1ccccc1)C(=O)Nc1ccccc1)C(=O)Nc1ccccc12 [Example 121]	> 1 µM
CC(C)S(=O)(=O)N1C[C@]2(C[C@H]1C#N)C(=O)Nc1ccccc12 [Example 122]	> 1 µM

Compound	IC50
CCOC(=O)C(=O)N1C[C@]2(C[C@H]1C#N)C(=O)Nc1ccccc12 [Example 123]	> 1 µM
CC(C)OC(=O)C(=O)N1C[C@]2(C[C@H]1C#N)C(=O)Nc1ccccc12 [Example 124]	> 1 µM
N#C[C@@H]1C[C@@]2(CN1C(=O)C(=O)OC1CC1)C(=O)Nc1ccccc12 [Example 125]	> 1 µM
N#C[C@@H]1C[C@@]2(CN1C(=O)C(=O)OCc1ccccc1)C(=O)Nc1ccccc12 [Example 126]	> 1 µM
N#C[C@@H]1C[C@@]2(CN1C(=O)C(=O)OCc1nccs1)C(=O)Nc1ccccc12 [Example 127]	> 1 µM
N#C[C@@H]1C[C@@]2(CN1S(=O)(=O)C1CCCC1)C(=O)Nc1ccccc12 [Example 128]	> 1 µM
N#C[C@@H]1C[C@@]2(CN1S(=O)(=O)C1CCCCC1)C(=O)Nc1ccccc12 [Example 129]	> 1 µM
N#C[C@@H]1C[C@@]2(CN1C(=O)NCc1cc3ccccc3[nH]1)C(=O)Nc1ccccc12 [Example 130]	> 1 µM
N#C[C@@H]1C[C@@]2(CN1C(=O)NCCc1cc3ccccc3[nH]1)C(=O)Nc1ccccc12 [Example 131]	> 1 µM
CC(C)C(=O)NN1C[C@]2(C[C@H]1C#N)C(=O)Nc1ccccc12 [Example 139]	> 1 µM
N#C[C@@H]1C[C@@]2(CN1NC(=O)C1CC1)C(=O)Nc1ccccc12 [Example 140]	> 1 µM
N#C[C@@H]1C[C@@]2(CN1NC(=O)C1CCCCC1)C(=O)Nc1ccccc12 [Example 141]	> 1 µM
N#C[C@@H]1C[C@@]2(CN1NC(=O)c1ccccc1)C(=O)Nc1ccccc12 [Example 142]	> 1 µM
CC1(C)CCC(NC(=O)C(=O)N2C[C@]3(C[C@H]2C#N)C(=O)Nc2ccccc23)CC1 [Example 143]	> 1 µM
N#C[C@@H]1C[C@@]2(CN1C(=O)C(=O)N[C@H]1CC[C@@H](NC(=O)OCc3ccccc3)CC1)C(=O)Nc1ccccc12 [Example 145]	> 1 µM
N#C[C@@H]1C[C@@]2(CN1C(=O)C(=O)N[C@H]1CCC(F)(F)C1)C(=O)Nc1ccccc12 [Example 146]	0.1 to 1 µM
CC(C)(C)OC(=O)N[C@@H]1CCC[C@@H]1NC(=O)C(=O)N1C[C@]2(C[C@H]1C#N)C(=O)Nc1ccccc12 [Example 147]	0.1 to 1 µM
N#C[C@@H]1C[C@@]2(CN1C(=N)C1CC1)C(=O)Nc1ccccc12 [Example 148]	> 1 µM
N#C[C@@H]1C[C@@]2(CN1C(=O)C(=O)N[C@H]1CC[C@H](C(F)(F)F)CC1)C(=O)Nc1ccccc12 [Example 149]	> 1 µM
CC(C)(C)OC(=O)N[C@H]1CC[C@@H](NC(=O)C(=O)N2C[C@]3(C[C@H]2C#N)C(=O)Nc2ccccc23)CC1 [Example 150]	> 1 µM
N#C[C@@H]1C[C@@]2(CN1C(=O)C(=O)N[C@H]1CC[C@@H](NC(=O)c3ccccc3)CC1)C(=O)Nc1ccccc12 [Example 151]	> 1 µM
CC(C)(C)OC(=O)N[C@H]1CC[C@@H](NC(=O)C(=O)N2C[C@]3(C[C@H]2C#N)C(=O)Nc2ccccc23)C1 [Example 152]	> 1 µM
CC(C)(C)OC(=O)N[C@H]1CCC[C@@H]1NC(=O)C(=O)N1C[C@]2(C[C@H]1C#N)C(=O)Nc1ccccc12 [Example 153]	> 1 µM
N#C[C@@H]1C[C@@]2(CN1C(=O)C(=O)NCC1CCCCC1)C(=O)Nc1ccccc12 [Example 154]	0.1 to 1 µM

Compound	IC50
N#C[C@@H]1C[C@@]2(CN1C(=O)C(=O)NCCC1CCCCC1)C(=O)Nc1ccccc12 [Example 155]	0.1 to 1 µM
CCCCCCNC(=O)C(=O)N1C[C@]2(C[C@H]1C#N)C(=O)Nc1ccccc12 [Example 156]	0.1 to 1 µM
N#C[C@@H]1C[C@@]2(CN1C(=O)C(=O)NCC13CC4CC(CC(C4)C1)C3)C(=O)Nc1ccccc12 [Example 158]	< 0.1 µM
N#C[C@@H]1C[C@@]2(CN1C(=O)C(=O)NCCc1ccccc1)C(=O)Nc1ccccc12 [Example 159]	> 1 µM
N#C[C@@H]1C[C@@]2(CN1C(=O)C(=O)NCCCc1ccccc1)C(=O)Nc1ccccc12 [Example 160]	0.1 to 1 µM
N#C[C@@H]1C[C@@]2(CN1C(=O)C(=O)Nc1cc(C(F)(F)F)ccn1)C(=O)Nc1ccccc12 [Example 161]	> 1 µM
N#C[C@@H]1C[C@@]2(CN1C(=O)C(=O)Nc1ccc(C(F)(F)F)cn1)C(=O)Nc1ccccc12 [Example 162]	> 1 µM
Cc1ccc(NC(=O)C(=O)N2C[C@]3(C[C@H]2C#N)C(=O)Nc2ccccc23)nc1 [Example 163]	> 1 µM
N#C[C@@H]1C[C@@]2(CN1C(=O)C(=O)Nc1ccc(C(F)(F)F)nc1)C(=O)Nc1ccccc12 [Example 164]	> 1 µM
N#C[C@@H]1C[C@@]2(CN1C(=O)C(=O)Nc1cccnc1C(F)(F)F)C(=O)Nc1ccccc12 [Example 165]	> 1 µM
N#C[C@@H]1C[C@@]2(CN1C(=O)C(=O)Nc1cccc(C(F)(F)F)n1)C(=O)Nc1ccccc12 [Example 166]	> 1 µM
N#C[C@@H]1C[C@@]2(CN1C(=O)C(=O)Nc1ccnc(C(F)(F)F)c1)C(=O)Nc1ccccc12 [Example 167]	> 1 µM
Cc1cccc(NC(=O)C(=O)N2C[C@]3(C[C@H]2C#N)C(=O)Nc2ccccc23)n1 [Example 168]	> 1 µM
CC(=O)N[C@H]1CC[C@@H](NC(=O)C(=O)N2C[C@]3(C[C@H]2C#N)C(=O)Nc2ccccc23)CC1 [Example 169]	> 1 µM
N#C[C@@H]1C[C@@]2(CN1C(=O)CC(=O)N[C@@H]1CCC[C@@H]1O)C(=O)Nc1ccccc12 [Example 170]	> 1 µM
N#C[C@@H]1C[C@@]2(CN1C(=O)CC(=O)N[C@H]1CCC[C@@H]1O)C(=O)Nc1ccccc12 [Example 171]	> 1 µM
N#C[C@@H]1C[C@@]2(CN1C(=O)CC(=O)N[C@@H]1CCC[C@H]1O)C(=O)Nc1ccccc12 [Example 172]	> 1 µM
N#C[C@@H]1C[C@@]2(CN1C(=O)CC(=O)N[C@H]1CCC[C@H]1O)C(=O)Nc1ccccc12 [Example 173]	> 1 µM
CC(C)(C)OC(=O)N[C@@H]1CC[C@H](NC(=O)C(=O)N2C[C@]3(C[C@H]2C#N)C(=O)Nc2ccccc23)C1 [Example 174]	> 1 µM
N#C[C@@H]1C[C@@]2(CN1C(=O)C(=O)NC1(c3ccccc3)CCCC1)C(=O)Nc1ccccc12 [Example 175]	< 0.1 µM
N#C[C@@H]1C[C@@]2(CN1C(=O)C(=O)Nc1cnccc1C(F)(F)F)C(=O)Nc1ccccc12 [Example 176]	> 1 µM
C[C@]1(O)CC[C@H](NC(=O)C(=O)N2C[C@]3(C[C@H]2C#N)C(=O)Nc2ccccc23)CC1 [Example 177]	> 1 µM
C[C@]1(O)CC[C@@H](NC(=O)C(=O)N2C[C@]3(C[C@H]2C#N)C(=O)Nc2ccccc23)CC1 [Example 178]	> 1 µM
CC1(NC(=O)C(=O)N2C[C@]3(C[C@H]2C#N)C(=O)Nc2ccccc23)CCCC1 [Example 179]	0.1 to 1 µM
